Earlier results, collected in paper PMC4832308 (Cancer, 2015).

What was measured:
patients [1] = details: phase 1 study; cited from earlier work
patients [2] = details: phase 1 study, cited from earlier work

Structure (SMILES) | best response SD rate (patients [1]) [%] | patients with best response SD (patients [1]) [patients] | patients with a response (patients [2]; MM) [patient] | response rate (patients [2]; MM) [%] | response duration (patients [2]; patient with MM) [months] | patients with SD (patients [2]) [patients]
COc1ccc(-c2ccc3c(N4CCOC[C@@H]4C)nc(N4CCOC[C@@H]4C)nc3n2)cc1CO [AZD8055] | 14.3 | 7 | – | – | – | –
CC(C)n1nc(-c2ccc3oc(N)nc3c2)c2c(N)ncnc21 [MLN0128] | – | – | 1 | 4 | ~2 | 15
